This note sets out measurements from paper PMC6899670 (The Febs Journal, 2019).

pKi: −log10 of the molar value. Read-outs that look alike come from different tables or passages of the source.

The target in experiment [1] is T1, BpDdl (Burkholderia pseudomallei D-alanine-D-alanine ligase) (Burkholderia pseudomallei, UniProt Q63QJ9).
T1 construct: gene ddl
As to conditions: substrate inhibition at high ATP; 10 mM D-Ala, pH 8, 10 mM MgCl2, 100 mM KCl, 30 °C; enzyme co-purified with AMP.

Experiment [2] addresses T1, BpDdl (Burkholderia pseudomallei D-alanine-D-alanine ligase). The experiment is described as follows: biochemical.
Experiment [3] shares this target. The experiment is described as follows: biochemical. The source holds these as a separate data set.

T1 sequence (Q63QJ9 whole entry, looked up): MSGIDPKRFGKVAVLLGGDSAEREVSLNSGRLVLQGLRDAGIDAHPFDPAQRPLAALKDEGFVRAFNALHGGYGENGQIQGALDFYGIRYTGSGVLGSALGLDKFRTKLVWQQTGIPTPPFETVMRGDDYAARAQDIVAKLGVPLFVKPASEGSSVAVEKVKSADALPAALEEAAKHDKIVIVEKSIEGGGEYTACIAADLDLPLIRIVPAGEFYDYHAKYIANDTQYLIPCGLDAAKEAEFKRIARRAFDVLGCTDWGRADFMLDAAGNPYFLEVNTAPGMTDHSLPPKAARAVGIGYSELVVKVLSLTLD

As to `Nc1ncnc2c1ncn2[C@@H]1O[C@H](COP(=O)(O)OP(=O)(O)OP(=O)(O)O)[C@@H](O)[C@H]1O` [ATP], in experiment [1], the “K i,ATP” value is given as 3.16 ± 0.59 mM. Consider `N[C@@H]1CON=C1O` [DCS], for which, in experiment [2], the pKi (usually the negative decadic logarithm of the Ki, by convention in mol/L) was 4.00.

Regarding `CC(=O)NCc1ccccc1Cl` [compound identified in the fragment screen], in experiment [3], the pKi was 2.00.
